Assay [1] deals with T1, recombinant human Polq polymerase domain (residues 1792-2590) (Homo sapiens, UniProt O75417).
T1 sequence (O75417 1792-2590): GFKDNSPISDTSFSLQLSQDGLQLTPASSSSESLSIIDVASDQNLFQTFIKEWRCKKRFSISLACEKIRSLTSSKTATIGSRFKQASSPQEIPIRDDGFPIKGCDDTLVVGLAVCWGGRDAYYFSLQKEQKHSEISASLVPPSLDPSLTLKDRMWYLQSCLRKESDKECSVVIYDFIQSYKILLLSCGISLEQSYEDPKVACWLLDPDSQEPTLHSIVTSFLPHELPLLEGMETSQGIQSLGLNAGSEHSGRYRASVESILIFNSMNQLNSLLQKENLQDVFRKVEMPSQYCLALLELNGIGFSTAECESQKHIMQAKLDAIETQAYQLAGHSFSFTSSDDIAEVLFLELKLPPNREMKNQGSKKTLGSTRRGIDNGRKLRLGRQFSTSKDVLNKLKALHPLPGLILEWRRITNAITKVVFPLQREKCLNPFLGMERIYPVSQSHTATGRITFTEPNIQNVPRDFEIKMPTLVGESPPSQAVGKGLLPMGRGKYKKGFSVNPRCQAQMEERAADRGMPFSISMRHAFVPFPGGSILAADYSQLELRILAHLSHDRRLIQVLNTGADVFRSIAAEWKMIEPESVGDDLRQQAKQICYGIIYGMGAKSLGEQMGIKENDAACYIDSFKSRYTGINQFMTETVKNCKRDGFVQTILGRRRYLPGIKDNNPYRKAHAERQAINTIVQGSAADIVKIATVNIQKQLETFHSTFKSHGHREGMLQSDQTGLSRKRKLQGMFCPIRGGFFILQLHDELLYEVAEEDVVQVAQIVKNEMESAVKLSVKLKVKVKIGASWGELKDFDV
As to the kind of experiment: Cy5 fluorescence assay of Polq polymerase enzymatic activity. The class given is biochemical. To be noted: 60 nM primer-template, 50 uM dNTPs, 37° C., 18 min, 2.5% DMSO, triplicate. The method, then:
The following Cy5 fluorescence assay was used to measure the ability of compounds to inhibit Polq polymerase domain in vitro. The fluorescent based assay was performed as follows: 60 nM of the pre-annealed primer-template containing a 5′ Cy5 fluorophore conjugated template strand (SEQ ID NO 6: 5′-/5Cy5/ […] GGACAG-3′), a downstream complementary oligo conjugated with a 3′ Blackhole quencher (SEQ ID NO 7: 5′-CTAAGCTCACAGTG/3IAbRQSp/-3′) and a primer strand (SEQ ID NO 8: 5′-CTGTCCTGCATGATG-3′) was mixed with 50 uM 2′-deoxyribonucleoside triphosphates (dNTPs), 0.1 mg/mL Bovine serum albumin (BSA), 0.01% NP-40, 10% glycerol, 1 mM dithiothreitol (DTT), 10 mM MgCl2, 25 mM TrisHCl pH 7.8 in the presence of 2.5% DMSO with or without various concentrations (7-point dilution series) of Polq small molecule inhibitors represented by Formula I at 37° C. in a volume of 40 μL.

The test system of assay [2] is BRCA2-WT DLD1 cells. As to the kind of experiment: Survival of BRCA2-WT DLD1 cells. The class given is cell-based. To be noted: n=3.
In assay [3] the test system is BRCA2-null HCT116 cells. Nature of the assay: Survival of BRCA2-null HCT116 cells. Conditions: as compared to BRCA2-WT HCT116 cells; n=3. The assay is classed as cell-based.
In assay [4] the test system is BRCA2-null DLD1 cells. Nature of the assay: Survival of BRCA2-null DLD1 cells. The class given is cell-based. To be noted: as compared to BRCA2-WT DLD1 cells; n=3.
For assay [5], the system named is BRCA2-WT HCT116 cells. As to the kind of experiment: Survival of BRCA2-WT HCT116 cells. The assay is classed as cell-based. Conditions: n=3.
Setting [6] is: 5 nM Polq polymerase domain, read-out: Polq IC50.
Setting [7] is: Polq IC50, 5 nM Polq polymerase domain.

Like-named read-outs stand apart in the source and are kept apart here.

18 compounds from patent US20260317313A1, “DNA Polymerase Theta Inhibitors Containing Non-Saturated 5-Membered Heterocyclic Rings and Use Thereof” (Thomas Jefferson University, priority 2022, published 2026) can be followed below.

On to `N#CCN(C(=O)Oc1c(-n2cc[nH]c2=O)cc(C(F)(F)F)cc1C(F)(F)F)c1ccc(F)cc1` [Example 20, 2-(2-oxo-2,3-dihydro-1H-imidazol-1-yl)-4,6-bis(trifluoromethyl)phenyl N-(cyanomethyl)-N-(4-fluorophenyl)carbamate], for which, in assay [1] (setting [6]), the IC50 was found to be 439 nM.

As for `[2H]C([2H])([2H])N(C(=O)Oc1c(-c2nnn[nH]2)cc(C(F)(F)F)cc1C(F)(F)F)c1ccc(F)cc1` [Example 21, 2-(1H-1,2,3,4-tetrazol-5-yl)-4,6-bis(trifluoromethyl)phenyl N-(4-fluorophenyl)-N-(methyl-d3)carbamate], the concentration for half-maximal inhibition (IC50) in assay [1] (setting [7]) stood at 3.2 nM.

Consider `[2H]C([2H])([2H])N(C(=O)Cc1c(-c2cnn(C(=O)OC(C)(C)C)c2)cc(C(F)(F)F)cc1C(F)(F)F)c1ccc(F)cc1` [Example 22, Tert-butyl 4-(2-{[(4-fluorophenyl)(methyl-d3)carbamoyl]methyl}-3,5-bis(trifluoromethyl)phenyl)-1H-pyrazole-1-carboxylate], for which the IC50 in assay [1] (setting [6]) was found to be 24.5 nM.

Take `[2H]C([2H])([2H])N(C(=O)Cc1c(-c2cn[nH]c2)cc(C(F)(F)F)cc1C(F)(F)F)c1ccc(F)cc1` [Example 23, N-(4-fluorophenyl)-N-(methyl-d3)-2-[2-(1H-pyrazol-4-yl)-4,6-bis(trifluoromethyl)phenyl]acetamide]: in assay [1] (setting [6]), the IC50 is 46.8 nM.

Regarding `[2H]C([2H])([2H])N(C(=O)Oc1c(-c2cn(C3CS(=O)(=O)CC3O)nn2)cc(C(F)(F)F)cc1C(F)(F)F)c1ccc(F)c(Cl)c1F` (centres unmarked) [Example 24, 2-[1-(4-hydroxy-1,1-dioxo-1λ^6-thiolan-3-yl)-1H-1,2,3-triazol-4-yl]-4,6-bis(trifluoromethyl)phenyl N-(3-chloro-2,4-difluorophenyl)-N-(methyl-d3)carbamate], the IC50 in assay [1] (setting [7]) came out at 13.6 nM.

In the case of `[2H]C([2H])([2H])N(C(=O)Oc1c(-c2cnn(CC(O)CN(C)C)c2)cc(C(F)(F)F)cc1C(F)(F)F)c1ccc(F)cc1` (centres unmarked) [Example 25, 2-{1-[3-(dimethylamino)-2-hydroxypropyl]-1H-pyrazol-4-yl}-4,6-bis(trifluoromethyl)phenyl N-(4-fluorophenyl)-N-(methyl-d3)carbamate], the IC50 in assay [1] (setting [7]) amounted to 24 nM.

On to `[2H]C([2H])([2H])N(C(=O)Oc1c(-c2cn[nH]c2)cc(C(F)(F)F)cc1C(F)(F)F)c1ccc(F)cc1` [Example 26, 2-(1H-pyrazol-4-yl)-4,6-bis(trifluoromethyl)phenyl 4-fluorophenyl(methyl-d3)carbamate], for which the “resistance of BRCA2-WT DLD1 cells to Polqi” value in assay [2] is “mostly resistant”. In assay [1] (setting [7]), the IC50 is 2 nM. Also, the “survival of BRCA2-null HCT116 cells” value in assay [3] is “significantly reduced”. Besides, the “survival of BRCA2-null DLD1 cells” value in assay [4] is “significantly reduced”. Moreover, the “resistance of BRCA2-WT HCT116 cells to Polqi” value in assay [5] is “mostly resistant”.

In the case of `[2H]C([2H])([2H])N(C(=O)Oc1c(-c2cnn(CC(N)=O)c2)cc(C(F)(F)F)cc1C(F)(F)F)c1ccc(F)cc1` [Example 27, 2-(1-(2-amino-2-oxoethyl)-1H-pyrazol-4-yl)-4,6-bis(trifluoromethyl)phenyl 4-fluorophenyl(methyl-d3)carbamate], the “resistance of BRCA2-WT DLD1 cells to Polqi” value in assay [2] is “mostly resistant”. The IC50 in assay [1] (setting [7]) was determined as 1.8 nM. Further, the “survival of BRCA2-null HCT116 cells” value in assay [3] is given as “significantly reduced”. Moreover, the “survival of BRCA2-null DLD1 cells” value in assay [4] was “significantly reduced”. Moreover, in assay [5], the “resistance of BRCA2-WT HCT116 cells to Polqi” value is recorded as “mostly resistant”.

With `[2H]C([2H])([2H])N(C(=O)Oc1c(-c2cn(C3CN(S(C)(=O)=O)C3)nn2)cc(C(F)(F)F)cc1C(F)(F)F)c1ccc(F)c(Cl)c1F` [Example 28, 2-[1-(1-methanesulfonylazetidin-3-yl)-1H-1,2,3-triazol-4-yl]-4,6-bis(trifluoromethyl)phenyl N-(3-chloro-2,4-difluorophenyl)-N-(methyl-d3)carbamate], the 50% inhibitory concentration (IC50) in assay [1] (setting [7]) was determined as 3.2 nM.

`[2H]C([2H])([2H])N(C(=O)Oc1c(-c2cn(CC(O)CNC)nn2)cc(C(F)(F)F)cc1C(F)(F)F)c1ccc(F)cc1` (centres unmarked) [Example 29, 2-{1-[2-hydroxy-3-(methylamino)propyl]-1H-1,2,3-triazol-4-yl}-4,6-bis(trifluoromethyl)phenyl N-(4-fluorophenyl)-N-(methyl-d3)carbamate]: the IC50 in assay [1] (setting [7]) is 3.4 nM.

For the compound `[2H]C([2H])([2H])N(C(=O)Oc1c(-c2cn(CC(O)CN(C)C)nn2)cc(C(F)(F)F)cc1C(F)(F)F)c1ccc(F)cc1` (centres unmarked) [Example 30, 2-{1-[3-(dimethylamino)-2-hydroxypropyl]-1H-1,2,3-triazol-4-yl}-4,6-bis(trifluoromethyl)phenyl N-(4-fluorophenyl)-N-(methyl-d3)carbamate], in assay [1] (setting [7]), the IC50 was 1.6 nM.

Take `[2H]C([2H])([2H])N(C(=O)Oc1c(-c2nnco2)cc(C(F)(F)F)cc1C(F)(F)F)c1ccc(F)cc1` [Example 31, 2-(1,3,4-oxadiazol-2-yl)-4,6-bis(trifluoromethyl)phenyl N-(4-fluorophenyl)-N-(methyl-d3)carbamate]: the IC50 in assay [1] (setting [7]) was found to be 5.6 nM.

On to `[2H]C([2H])([2H])N(C(=O)Oc1c(-n2cncn2)cc(C(F)(F)F)cc1C(F)(F)F)c1ccc(F)cc1` [Example 32, 2-(1H-1,2,4-triazol-1-yl)-4,6-bis(trifluoromethyl)phenyl N-(4-fluorophenyl)-N-(methyl-d3)carbamate], for which the IC50 in assay [1] (setting [7]) was 18 nM.

As for `[2H]C([2H])([2H])N(C(=O)Oc1c(-c2cn(C3CN(S(=O)(=O)CCN)C3)nn2)cc(C(F)(F)F)cc1C(F)(F)F)c1ccc(F)c(Cl)c1F` [Example 33, 2-{1-[1-(2-aminoethanesulfonyl)azetidin-3-yl]-1H-1,2,3-triazol-4-yl}-4,6-bis(trifluoromethyl)phenyl N-(3-chloro-2,4-difluorophenyl)-N-(methyl-d3)carbamate], in assay [1] (setting [7]), the IC50 was 2.9 nM.

Consider `[2H]C([2H])([2H])N(C(=O)Oc1c(-n2cn[nH]c2=O)cc(C(F)(F)F)cc1C(F)(F)F)c1ccc(F)cc1` [Example 34, 2-(5-oxo-4,5-dihydro-1H-1,2,4-triazol-4-yl)-4,6-bis(trifluoromethyl)phenyl N-(4-fluorophenyl)-N-(methyl-d3)carbamate], for which, in assay [1] (setting [7]), the IC50 came to 51 nM.

As for `[2H]C([2H])([2H])N(C(=O)Oc1c(-n2cnn(CC(O)CNC)c2=O)cc(C(F)(F)F)cc1C(F)(F)F)c1ccc(F)cc1` (centres unmarked) [Example 35, 2-{1-[2-hydroxy-3-(methylamino)propyl]-5-oxo-4,5-dihydro-1H-1,2,4-triazol-4-yl}-4,6-bis(trifluoromethyl)phenyl N-(4-fluorophenyl)-N-(methyl-d3)carbamate], the IC50 in assay [1] (setting [7]) came to 104 nM.

As to `CN(C(=O)Oc1c(-c2cn(CCOCCOCCC(=O)O)nn2)cc(C(F)(F)F)cc1C(F)(F)F)c1ccc(F)cc1` [Example 36, 3-(2-(2-(4-(2-(((4-fluorophenyl)(methyl)carbamoyl)oxy)-3,5-bis(trifluoromethyl)phenyl)-1H-1,2,3-triazol-1-yl)ethoxy)ethoxy)propanoic Acid], the IC50 in assay [1] (setting [7]) was 3 nM.

For `Cc1ncsc1-c1ccc(CNC(=O)[C@@H]2C[C@@H](O)CN2C(=O)[C@@H](NC(=O)CCOCCOCCn2cc(-c3cc(C(F)(F)F)cc(C(F)(F)F)c3OC(=O)N(C)c3ccc(F)cc3)nn2)C(C)(C)C)cc1` [Example 37, 2-(1-(2-(2-(3-(((S)-1-((2S,4R)-4-hydroxy-2-((4-(4-methylthiazol-5-yl)benzyl)carbamoyl)pyrrolidin-1-yl)-3,3-dimethyl-1-oxobutan-2-yl)amino)-3-oxopropoxy)ethoxy)ethyl)-1H-1,2,3-triazol-4-yl)-4,6-bis(trifluoromethyl)phenyl (4-fluorophenyl)(methyl)carbamate], the IC50 in assay [1] (setting [7]) was determined as 4.6 nM.
